We go through 22 compounds from US20230172204A1 (BASF SE, priority 2020, published 2023).

Assay [1] deals with Phakopsora pachyrhizi (F129L). The assay is described as follows: Protective control of soybean rust on soybeans (PHAKPA P6). It counts as in vivo. The following applies: for % PHAKPA (F129L) Disease level P6 at 4 ppm: protective P6, 4 ppm; for % PHAKPA (F129L) Disease level P6 at 4 ppm / % PHAKPA (F129L) Disease level P6 at 16 ppm: soybean rust F129L; for % PHAKPA (F129L) Disease level P6 at 16 ppm: protective P6, 16 ppm.

Assay [2] concerns Phakopsora pachyrhizi (F129L). The assay is described as follows: Protective control of soybean rust on soybeans (PHAKPA P2). It counts as in vivo. To be noted: for % PHAKPA (F129L) Disease level P2 at 4 ppm: protective P2, 4 ppm; for % PHAKPA (F129L) Disease level P2 at 4 ppm / % PHAKPA (F129L) Disease level P2 at 16 ppm: soybean rust F129L; for % PHAKPA (F129L) Disease level P2 at 16 ppm: protective P2, 16 ppm.

Where [3] appears, read: P6 protective, % diseased leaf area.
[4] abbreviates: P2 protective, % diseased leaf area.

For `CO/N=C(/C(=O)OC)c1cccc(C)c1CO/N=C(\C)c1ccc(F)cc1F` [compound 266], in assay [1], the “% PHAKPA (F129L) Disease level P6 at 4 ppm” value is given as 90% and the “% PHAKPA (F129L) Disease level P6 at 16 ppm” value was found to be 43%. For the same compound, in assay [2], the “% PHAKPA (F129L) Disease level P2 at 4 ppm” value is 67% and the “% PHAKPA (F129L) Disease level P2 at 16 ppm” value is given as 18%.

With `CO/N=C(/C(=O)OC)c1cccc(C)c1CO/N=C(\C)c1ccc(OC)cc1` [Ex. 216], the “PHAKPA (F129L) Disease level (%) P6 at 16 ppm” value (from here on “PHAKPA … (%) P6 at 16 ppm”) in assay [1] (setting [3]) is reported as 15%. Also, in assay [1], the “% PHAKPA (F129L) Disease level P6 at 4 ppm” value turned out to be 80% and the “% PHAKPA (F129L) Disease level P6 at 16 ppm” value turned out to be 29%. The “PHAKPA (F129L) Disease level (%) P2 at 16 ppm” value (from here on “PHAKPA … (%) P2 at 16 ppm”) in assay [2] (setting [4]) was found to be 20%. In assay [2], the “% PHAKPA (F129L) Disease level P2 at 4 ppm” value turned out to be 77% and the “% PHAKPA (F129L) Disease level P2 at 16 ppm” value is reported as 13%.

On to `CNC(=O)/C(=N/OC)c1cccc(C)c1CO/N=C(\C)c1ccc(F)cc1` [compound 108], for which, in assay [1], the “% PHAKPA (F129L) Disease level P6 at 4 ppm” value is 1% and the “% PHAKPA (F129L) Disease level P6 at 16 ppm” value worked out at 0%. In addition, in assay [2], the “% PHAKPA (F129L) Disease level P2 at 4 ppm” value was 1% and the “% PHAKPA (F129L) Disease level P2 at 16 ppm” value is recorded as 0%.

`CNC(=O)/C(=N/OC)c1cccc(C)c1CO/N=C(\C)c1ccccc1F` [Ex. 2, (2E)-2-[2-[[(E)-1-(2-fluorophenyl)ethylideneamino]oxymethyl]-3-methyl-phenyl]-2-methoxyimino-N-methyl-acetamide]: in assay [1], the “% PHAKPA (F129L) Disease level P6 at 4 ppm” value is reported as 26% and the “% PHAKPA (F129L) Disease level P6 at 16 ppm” value turned out to be 1%. Further, in assay [2], the “% PHAKPA (F129L) Disease level P2 at 4 ppm” value came to 5% and the “% PHAKPA (F129L) Disease level P2 at 16 ppm” value is listed as 0%.

In the case of `CO/N=C(/C(=O)OC)c1cccc(C)c1CO/N=C(\C)c1ccccc1Br` [compound 119], in assay [1], the “% PHAKPA (F129L) Disease level P6 at 4 ppm” value amounted to 92% and the “% PHAKPA (F129L) Disease level P6 at 16 ppm” value is on record as 63%. Besides, in assay [2], the “% PHAKPA (F129L) Disease level P2 at 4 ppm” value came to 93% and the “% PHAKPA (F129L) Disease level P2 at 16 ppm” value came to 63%.

Turning to `CNC(=O)/C(=N/OC)c1cccc(C)c1CO/N=C(\C)c1cc(C(F)(F)F)cc(F)c1NC` [compound 238], in assay [1], the “% PHAKPA (F129L) Disease level P6 at 4 ppm” value was found to be 100% and the “% PHAKPA (F129L) Disease level P6 at 16 ppm” value was determined as 77%. For the same compound, in assay [2], the “% PHAKPA (F129L) Disease level P2 at 4 ppm” value came out at 100% and the “% PHAKPA (F129L) Disease level P2 at 16 ppm” value is on record as 53%.

For `CNC(=O)/C(=N/OC)c1cccc(C)c1CO/N=C(\C)c1ccccc1OC(F)F` [compound 252], in assay [1], the “% PHAKPA (F129L) Disease level P6 at 4 ppm” value was 87% and the “% PHAKPA (F129L) Disease level P6 at 16 ppm” value is 32%. In addition, in assay [2], the “% PHAKPA (F129L) Disease level P2 at 4 ppm” value was 50% and the “% PHAKPA (F129L) Disease level P2 at 16 ppm” value is listed as 3%.

Regarding `CNC(=O)/C(=N/OC)c1cccc(C)c1CO/N=C(\C)c1ccccc1C1CC1(F)F` (stereo not shown) [compound 288], in assay [1], the “% PHAKPA (F129L) Disease level P6 at 4 ppm” value came out at 97% and the “% PHAKPA (F129L) Disease level P6 at 16 ppm” value is 20%. Also, in assay [2], the “% PHAKPA (F129L) Disease level P2 at 4 ppm” value came to 87% and the “% PHAKPA (F129L) Disease level P2 at 16 ppm” value was 30%.

For `CNC(=O)/C(=N/OC)c1cccc(C)c1CO/N=C(\C)c1cccc(OC/C(C)=N/OC)c1` [compound 226], in assay [1], the “% PHAKPA (F129L) Disease level P6 at 4 ppm” value is listed as 57% and the “% PHAKPA (F129L) Disease level P6 at 16 ppm” value is given as 7%. Moreover, in assay [2], the “% PHAKPA (F129L) Disease level P2 at 4 ppm” value was 28% and the “% PHAKPA (F129L) Disease level P2 at 16 ppm” value amounted to 3%.

For the compound `CO/N=C(/C(=O)OC)c1cccc(C)c1CO/N=C(\C)c1cc(Br)cc(F)c1F` [compound 240], in assay [1], the “% PHAKPA (F129L) Disease level P6 at 4 ppm” value was found to be 73% and the “% PHAKPA (F129L) Disease level P6 at 16 ppm” value came out at 3%. Also, in assay [2], the “% PHAKPA (F129L) Disease level P2 at 4 ppm” value amounted to 70% and the “% PHAKPA (F129L) Disease level P2 at 16 ppm” value is 8%.

Regarding `CNC(=O)/C(=N/OC)c1cccc(C)c1CO/N=C(\C)c1ccc(OC(F)(F)F)cc1` [compound 136], in assay [1], the “% PHAKPA (F129L) Disease level P6 at 4 ppm” value came out at 3% and the “% PHAKPA (F129L) Disease level P6 at 16 ppm” value came out at 2%. In assay [2], the “% PHAKPA (F129L) Disease level P2 at 4 ppm” value was 1% and the “% PHAKPA (F129L) Disease level P2 at 16 ppm” value is listed as 0%.

For the compound `CNC(=O)/C(=N/OC)c1cccc(C)c1CO/N=C(\C)c1ccc(-c2ccccc2)cc1OC(F)(F)F` [compound 435], in assay [1], the “% PHAKPA (F129L) Disease level P6 at 4 ppm” value was found to be 87% and the “% PHAKPA (F129L) Disease level P6 at 16 ppm” value is on record as 60%. Moreover, in assay [2], the “% PHAKPA (F129L) Disease level P2 at 4 ppm” value stood at 93% and the “% PHAKPA (F129L) Disease level P2 at 16 ppm” value worked out at 57%.

As for `CNC(=O)/C(=N/OC)c1cccc(C)c1CO/N=C(\C)c1ccccc1C(F)F` [compound 298], in assay [1], the “% PHAKPA (F129L) Disease level P6 at 4 ppm” value is listed as 97% and the “% PHAKPA (F129L) Disease level P6 at 16 ppm” value is given as 37%. In assay [2], the “% PHAKPA (F129L) Disease level P2 at 4 ppm” value is on record as 63% and the “% PHAKPA (F129L) Disease level P2 at 16 ppm” value is 7%.

With `CNC(=O)/C(=N/OC)c1cccc(C)c1CO/N=C(\C)c1cc(Cl)c(F)c(Cl)c1` [compound 247], in assay [1], the “% PHAKPA (F129L) Disease level P6 at 4 ppm” value worked out at 33% and the “% PHAKPA (F129L) Disease level P6 at 16 ppm” value is recorded as 8%. For the same compound, in assay [2], the “% PHAKPA (F129L) Disease level P2 at 4 ppm” value is 16% and the “% PHAKPA (F129L) Disease level P2 at 16 ppm” value is given as 2%.

With `CNC(=O)/C(=N/OC)c1ccccc1CO/N=C(\C)c1ccc(-c2ccccc2)cc1` [reference compound], the “PHAKPA … (%) P6 at 16 ppm” value in assay [1] (setting [3]) worked out at 28%. In addition, the “PHAKPA … (%) P2 at 16 ppm” value in assay [2] (setting [4]) is given as 37%.

Turning to `C#Cc1cc(F)cc(/C(C)=N/OCc2c(C)cccc2/C(=N\OC)C(=O)NC)c1` [compound 55], in assay [1], the “% PHAKPA (F129L) Disease level P6 at 4 ppm” value stood at 13% and the “% PHAKPA (F129L) Disease level P6 at 16 ppm” value is given as 5%. In addition, in assay [2], the “% PHAKPA (F129L) Disease level P2 at 4 ppm” value was 3% and the “% PHAKPA (F129L) Disease level P2 at 16 ppm” value was 1%.

On to `CO/N=C(/C(=O)OC)c1cccc(C)c1CO/N=C(\C)c1ccc(F)cc1C(F)(F)F` [compound 263], for which, in assay [1], the “% PHAKPA (F129L) Disease level P6 at 4 ppm” value is given as 73% and the “% PHAKPA (F129L) Disease level P6 at 16 ppm” value was 22%. Also, in assay [2], the “% PHAKPA (F129L) Disease level P2 at 4 ppm” value stood at 80% and the “% PHAKPA (F129L) Disease level P2 at 16 ppm” value came out at 15%.

For the compound `CC/C(=N\OCc1c(C)cccc1/C(=N\OC)C(=O)NC)c1cccc(C(F)(F)F)c1` [Ex. 188], in assay [1] (P6 protective, 4 ppm, % diseased leaf area), the “PHAKPA (F129L) Disease level (%) P6 at 4 ppm” value turned out to be 30%. Also, in assay [1], the “% PHAKPA (F129L) Disease level P6 at 4 ppm” value stood at 11% and the “% PHAKPA (F129L) Disease level P6 at 16 ppm” value is listed as 0%. In addition, the “PHAKPA (F129L) Disease level (%) P2 at 4 ppm” value in assay [2] (P2 protective, 4 ppm, % diseased leaf area) is listed as 2%. For the same compound, in assay [2], the “% PHAKPA (F129L) Disease level P2 at 4 ppm” value turned out to be 1% and the “% PHAKPA (F129L) Disease level P2 at 16 ppm” value was found to be 0%.

As for `CNC(=O)/C(=N/OC)c1cccc(C)c1CO/N=C(\C)c1cccc(-c2noc(C(F)(F)F)n2)c1` [compound 67], in assay [1], the “% PHAKPA (F129L) Disease level P6 at 4 ppm” value is 80% and the “% PHAKPA (F129L) Disease level P6 at 16 ppm” value is reported as 30%. Also, in assay [2], the “% PHAKPA (F129L) Disease level P2 at 4 ppm” value came to 67% and the “% PHAKPA (F129L) Disease level P2 at 16 ppm” value was 2%.

As for `CO/C=C(/C(=O)OC)c1ccccc1CO/N=C(\C)c1ccccc1C(F)(F)F` [reference compound], in assay [1] (setting [3]), the “PHAKPA … (%) P6 at 16 ppm” value amounted to 9%. The “PHAKPA … (%) P2 at 16 ppm” value in assay [2] (setting [4]) is listed as 11%.

For `COC=C(C(=O)OC)c1cccc(C)c1CON=C(C)c1ccc(OC(F)(F)F)cc1Cl` [compound 463], in assay [1], the “% PHAKPA (F129L) Disease level P6 at 4 ppm” value was 3% and the “% PHAKPA (F129L) Disease level P6 at 16 ppm” value is 0%. In assay [2], the “% PHAKPA (F129L) Disease level P2 at 4 ppm” value amounted to 6% and the “% PHAKPA (F129L) Disease level P2 at 16 ppm” value was 0%.

Regarding `CNC(=O)/C(=N/OC)c1cccc(C)c1CO/N=C(\C)c1ccc(F)c(F)c1OC(F)(F)F` [compound 451], in assay [1], the “% PHAKPA (F129L) Disease level P6 at 4 ppm” value was 2% and the “% PHAKPA (F129L) Disease level P6 at 16 ppm” value was 0%. For the same compound, in assay [2], the “% PHAKPA (F129L) Disease level P2 at 4 ppm” value was found to be 1% and the “% PHAKPA (F129L) Disease level P2 at 16 ppm” value is 0%.
